Experiments:
Type in all cases: in vivo
[1] = tested on: Abutilon theophrasti (ABUTH); test: A. Herbicidal pre-emergence efficacy, ABUTH; conditions: scored visually after about 3 weeks vs untreated controls
Outline: (§1)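 Pre-emergence soil-surface spray in sandy loam pots, WP/EC in water plus 0.5% additive, 600 L/ha. Visual % damage rating after about 3 weeks in greenhouse vs. untreated; 0% = control-like, 100% = dead plants. Rates up to 1280 g/ha.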

[2] = tested on: Alopecurus myosuroides (ALOMY); test: A. Herbicidal pre-emergence efficacy, ALOMY; conditions: 1280 g/ha; scored visually after about 3 weeks vs untreated controls
Excerpt: (§2) Seeds of mono- and dicotyledonous weed plants were placed in plastic pots in sandy loam soil (doubly sown with one species each of mono- or dicotyledonous weed plants per pot) and covered with soil. The compounds of the invention, formulated in the form of wettable powders (WP) or as emulsion concentrates (EC), were then applied onto the surface of the covering soil as aqueous suspension or emulsion with addition of 0.5% additive at a water application rate of 600 liters per hectare (converted). After the treatment, the pots were placed in a greenhouse and kept under good growth conditions for the test plants. After about 3 weeks, the efficacy of the preparations was scored visually in comparison with untreated controls as percentages.
(§3) For example, • 100% efficacy=plants have died, • 0% efficacy=like untreated control plants.
(§4) Tables A1a to A12c below show the effects of selected compounds of the general formula (I) according to table 1 on various harmful plants at an application rate corresponding to 1280 g/ha or less, which were obtained by the experimental procedure mentioned above.

[3] = tested on: Digitaria sanguinalis (DIGSA); test: A. Herbicidal pre-emergence efficacy, DIGSA; conditions: scored visually after about 3 weeks vs untreated controls
Outline: as §1

[4] = tested on: Echinochloa crus-galli (ECHCG); test: A. Herbicidal pre-emergence efficacy, ECHCG; conditions: scored visually after about 3 weeks vs untreated controls
Outline: as §1

Kochia scoparia (KCHSC) [5] = test: A. Herbicidal pre-emergence efficacy, KCHSC; conditions: pre-emergence
Outline: as §1

Lolium rigidum (LOLRI) = test: A. Herbicidal pre-emergence efficacy, LOLRI
Excerpt: as §2, §3, §4

[6] = tested on: Matricaria inodora (MATIN); test: A. Herbicidal pre-emergence efficacy, MATIN
Excerpt: as §2, §3, §4

Poa annua (POAAN) [7] = test: A. Herbicidal pre-emergence efficacy, POAAN
Outline: as §1

Setaria viridis (SETVI) [8] = test: A. Herbicidal pre-emergence efficacy, SETVI
Outline: as §1

Stellaria media (STEME) [9] = test: A. Herbicidal pre-emergence efficacy, STEME
Outline: as §1

Veronica persica (VERPE) [10] = test: A. Herbicidal pre-emergence efficacy, VERPE
Outline: as §1

[11] = tested on: Amaranthus retroflexus (AMARE); test: A. Herbicidal pre-emergence efficacy, AMARE
Outline: as §1

[12] = tested on: Abutilon theophrasti (ABUTH); test: B. Herbicidal post-emergence efficacy, ABUTH; conditions: rated visually after about 3 weeks
Outline: (§5)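 Weeds grown in sandy loam in greenhouse pots, sprayed at one-leaf stage (2–3 weeks after sowing) with WP or EC formulations as aqueous suspension/emulsion plus 0.5% additive at 600 L/ha water, rates up to 1280 g/ha. Visual efficacy rated about 3 weeks later versus untreated controls (0% = like control, 100% = dead).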

[13] = tested on: Echinochloa crus-galli (ECHCG); test: B. Herbicidal post-emergence efficacy, ECHCG; conditions: 1280 g/ha, rated visually after about 3 weeks
Outline: as §5

Kochia scoparia (KCHSC) [14] = test: B. Herbicidal post-emergence efficacy, KCHSC; conditions: for Post-emergence efficacy against KCHSC in %: rated visually after about 3 weeks; for Post-emergence efficacy against KCHSC: 1280 g/ha
Outline: as §5

Stellaria media (STEME) [15] = test: B. Herbicidal post-emergence efficacy, STEME
Outline: as §5

[16] = tested on: Digitaria sanguinalis (DIGSA); test: B. Herbicidal post-emergence efficacy, DIGSA; conditions: rated visually after about 3 weeks
Experimental: (§6) Seeds of mono- and dicotyledonous weed plants were placed in plastic pots in sandy loam soil (doubly sown with in each case one species of mono- or dicotyledonous weed plants per pot), covered with soil and cultivated in a greenhouse under controlled growth conditions. 2 to 3 weeks after sowing, the test plants were treated at the one-leaf stage. The compounds of the invention, formulated in the form of wettable powders (WP) or as emulsion concentrates (EC), were applied onto the green parts of the plants as aqueous suspension or emulsion with addition of 0.5% additive at a water application rate of 600 liters per hectare (converted). After the test plants had been kept in the greenhouse under optimum growth conditions for about 3 weeks, the activity of the preparations was rated visually in comparison to untreated controls.
(§7) For example, • 100% efficacy=plants have died, • 0% efficacy=like untreated control plants
(§8) Tables B1a to B12c below show the effects of selected inventive compounds of the general formula (I) according to table 1 on various harmful plants at an application rate corresponding to 1280 g/ha or less, which were obtained by the experimental procedure mentioned above.

Poa annua (POAAN) [17] = test: B. Herbicidal post-emergence efficacy, POAAN
Outline: as §5

Setaria viridis (SETVI) [18] = test: B. Herbicidal post-emergence efficacy, SETVI; conditions: 1280 g/ha
Experimental: as §6, §7, §8

Veronica persica (VERPE) [19] = test: B. Herbicidal post-emergence efficacy, VERPE
Outline: as §5

[20] = tested on: Amaranthus retroflexus (AMARE); test: B. Herbicidal post-emergence efficacy, AMARE
Outline: as §5

[21] = 320 g/ha, scored visually after about 3 weeks vs untreated controls
[22] = pre-emergence, dosage 1280 g/ha

Structure (SMILES)	Pre-emergence efficacy against ABUTH ([1]; 1280 g/ha) [%]	Pre-emergence efficacy against DIGSA ([3]; 320 g/ha) [%]	Pre-emergence efficacy against DIGSA ([3]; 1280 g/ha) [%]	Pre-emergence efficacy against ECHCG ([4]; 320 g/ha) [%]	Pre-emergence efficacy against ECHCG ([4]; 1280 g/ha) [%]	Pre-emergence efficacy against KCHSC (Kochia scoparia (KCHSC) [5]; dosage 1280 g/ha) [%]	Pre-emergence efficacy against LOLRI (Lolium rigidum (LOLRI); dosage 1280 g/ha) [%]	Pre-emergence efficacy against MATIN [6, 22] [%]	Pre-emergence efficacy against POAAN (Poa annua (POAAN) [7]; dosage 320 g/ha) [%]	Pre-emergence efficacy against POAAN (Poa annua (POAAN) [7]; dosage 1280 g/ha) [%]	Pre-emergence efficacy against SETVI (Setaria viridis (SETVI) [8]; dosage 320 g/ha) [%]	Pre-emergence efficacy against SETVI (Setaria viridis (SETVI) [8]; dosage 1280 g/ha) [%]	Pre-emergence efficacy against STEME (Stellaria media (STEME) [9]; dosage 320 g/ha) [%]	Pre-emergence efficacy against STEME (Stellaria media (STEME) [9]; dosage 1280 g/ha) [%]	Pre-emergence efficacy against VERPE in % (Veronica persica (VERPE) [10]; 1280 g/ha) [%]	Pre-emergence efficacy against AMARE in % ([11]; 320 g/ha) [%]	Pre-emergence efficacy against AMARE in % ([11]; 1280 g/ha) [%]	Post-emergence efficacy against ABUTH in % ([12]; 1280 g/ha) [%]	Post-emergence efficacy against KCHSC (Kochia scoparia (KCHSC) [14]) [%]	Post-emergence efficacy against STEME (Stellaria media (STEME) [15]; 1280 g/ha) [%]	other results
O=S(=O)(CCCC(F)(F)F)Oc1c(Br)cccc1Oc1ncc(F)cn1 [Example I-44]	100	100	100	100	100	100	100	100	100	100	100	100	100	100	100	100	100	100	100	100	Pre-emergence efficacy against ALOMY [2]: 100%; Pre-emergence efficacy against KCHSC (Kochia scoparia (KCHSC) [5]; dosage 320 g/ha): 100%; Pre-emergence efficacy against LOLRI (Lolium rigidum (LOLRI); dosage 320 g/ha): 100%; Pre-emergence efficacy against MATIN [6, 21]: 90%; Pre-emergence efficacy against STEME (Stellaria media (STEME) [9]; dosage 80 g/ha): 100%; Pre-emergence efficacy against VERPE in % (Veronica persica (VERPE) [10]; 320 g/ha): 100%; Pre-emergence efficacy against AMARE in % ([11]; 80 g/ha): 100%; Post-emergence efficacy against ABUTH in % ([12]; 320 g/ha): 90%; Post-emergence efficacy against ECHCG in % [13]: 100%; Post-emergence efficacy against KCHSC in % (Kochia scoparia (KCHSC) [14]; 80 g/ha): 100%; Post-emergence efficacy against KCHSC in % (Kochia scoparia (KCHSC) [14]; 320 g/ha): 100%; Post-emergence efficacy against STEME (Stellaria media (STEME) [15]; 80 g/ha): 100%; Post-emergence efficacy against STEME (Stellaria media (STEME) [15]; 320 g/ha): 100%
O=S(=O)(CC1CCCO1)Oc1c(F)cccc1Oc1ncc(Cl)cn1 (stereo not shown) [Example I-54]	100	90	100	100	100	90	90	90	90	100	100	100	90	100	90	100	100	90	90	90	Pre-emergence efficacy against ABUTH ([1]; 320 g/ha): 90%; Post-emergence efficacy against DIGSA in % ([16]; 1280 g/ha): 90%; Post-emergence efficacy against ECHCG in % [13]: 90%; Post-emergence efficacy against POAAN (Poa annua (POAAN) [17]; 1280 g/ha): 90%; Post-emergence efficacy against SETVI (Setaria viridis (SETVI) [18]): 90%; Post-emergence efficacy against VERPE (Veronica persica (VERPE) [19]; 80 g/ha): 90%; Post-emergence efficacy against VERPE (Veronica persica (VERPE) [19]; 320 g/ha): 90%; Post-emergence efficacy against VERPE (Veronica persica (VERPE) [19]; 1280 g/ha): 90%; Post-emergence efficacy against AMARE ([20]; 1280 g/ha): 90%
N#Cc1cc(Cl)cnc1Oc1ccccc1OS(=O)(=O)CCCCl [Example I-59]	90	100	100	–	100	100	90	100	100	100	100	100	100	100	100	100	100	90	90	90	Pre-emergence efficacy against KCHSC (Kochia scoparia (KCHSC) [5]; dosage 320 g/ha): 100%; Pre-emergence efficacy against MATIN [6, 21]: 90%; Pre-emergence efficacy against STEME (Stellaria media (STEME) [9]; dosage 80 g/ha): 90%; Pre-emergence efficacy against VERPE in % (Veronica persica (VERPE) [10]; 320 g/ha): 90%; Pre-emergence efficacy against AMARE in % ([11]; 80 g/ha): 100%; Post-emergence efficacy against ABUTH in % ([12]; 320 g/ha): 90%; Post-emergence efficacy against DIGSA in % ([16]; 320 g/ha): 90%; Post-emergence efficacy against DIGSA in % ([16]; 1280 g/ha): 90%; Post-emergence efficacy against KCHSC in % (Kochia scoparia (KCHSC) [14]; 320 g/ha): 90%; Post-emergence efficacy against POAAN (Poa annua (POAAN) [17]; 1280 g/ha): 90%; Post-emergence efficacy against SETVI (Setaria viridis (SETVI) [18]): 90%; Post-emergence efficacy against STEME (Stellaria media (STEME) [15]; 320 g/ha): 90%; Post-emergence efficacy against VERPE (Veronica persica (VERPE) [19]; 80 g/ha): 90%; Post-emergence efficacy against VERPE (Veronica persica (VERPE) [19]; 320 g/ha): 90%; Post-emergence efficacy against VERPE (Veronica persica (VERPE) [19]; 1280 g/ha): 90%; Post-emergence efficacy against AMARE ([20]; 80 g/ha): 90%; Post-emergence efficacy against AMARE ([20]; 320 g/ha): 90%; Post-emergence efficacy against AMARE ([20]; 1280 g/ha): 90%
Cc1cccc(Oc2ncc(Br)cn2)c1OS(=O)(=O)CCC(F)(F)F [Example I-33]	100	100	100	100	100	–	100	90	100	100	100	100	100	100	100	100	100	100	100	100	Pre-emergence efficacy against ABUTH ([1]; 320 g/ha): 100%; Pre-emergence efficacy against STEME (Stellaria media (STEME) [9]; dosage 80 g/ha): 100%; Pre-emergence efficacy against VERPE in % (Veronica persica (VERPE) [10]; 320 g/ha): 100%; Pre-emergence efficacy against VERPE (Veronica persica (VERPE) [10]; dosage 80 g/ha): 90%; Pre-emergence efficacy against AMARE in % ([11]; 80 g/ha): 90%; Post-emergence efficacy against ABUTH in % ([12]; 320 g/ha): 90%; Post-emergence efficacy against DIGSA in % ([16]; 1280 g/ha): 90%; Post-emergence efficacy against ECHCG in % [13]: 100%; Post-emergence efficacy against POAAN (Poa annua (POAAN) [17]; 320 g/ha): 90%; Post-emergence efficacy against POAAN (Poa annua (POAAN) [17]; 1280 g/ha): 100%; Post-emergence efficacy against SETVI (Setaria viridis (SETVI) [18]): 100%; Post-emergence efficacy against STEME (Stellaria media (STEME) [15]; 80 g/ha): 90%; Post-emergence efficacy against STEME (Stellaria media (STEME) [15]; 320 g/ha): 100%; Post-emergence efficacy against VERPE (Veronica persica (VERPE) [19]; 80 g/ha): 100%; Post-emergence efficacy against VERPE (Veronica persica (VERPE) [19]; 320 g/ha): 100%; Post-emergence efficacy against VERPE (Veronica persica (VERPE) [19]; 1280 g/ha): 100%; Post-emergence efficacy against AMARE ([20]; 320 g/ha): 90%; Post-emergence efficacy against AMARE ([20]; 1280 g/ha): 100%
